Test results: US8455475B2 (Gruenenthal GmbH, priority 2009, dated 2013)

Key:
[1] = target: T1, human B1R (bradykinin receptor 1) (Homo sapiens, UniProt P46663); test: FLIPR Ca2+ assay (Fluo-4) on CHO K1 cells stably transfected with the human B1R gene (hB1R cells): % inhibition at 10 μM / IC50, agonist Lys-Des-Arg9-bradykinin; type: cell-based; settings: for inhibition at 10 µM: CHO-K1, human B1R
T1 construct: expressed in transfected cells; host or cells: CHO K1 cells
T1 sequence (P46663 1-353): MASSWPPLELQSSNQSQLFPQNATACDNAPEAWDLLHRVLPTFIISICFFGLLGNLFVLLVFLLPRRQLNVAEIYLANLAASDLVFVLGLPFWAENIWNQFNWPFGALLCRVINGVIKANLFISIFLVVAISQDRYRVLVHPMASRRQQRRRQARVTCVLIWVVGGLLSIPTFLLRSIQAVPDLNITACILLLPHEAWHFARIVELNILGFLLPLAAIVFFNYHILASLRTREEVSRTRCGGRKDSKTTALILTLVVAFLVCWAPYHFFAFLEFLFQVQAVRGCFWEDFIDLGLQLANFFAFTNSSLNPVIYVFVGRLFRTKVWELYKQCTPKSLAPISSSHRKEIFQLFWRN
How it was run: (§1)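 Using a two-addition FLIPR protocol, compound (10 μM for % values; concentration series for IC50) was preincubated 10–20 min with Fluo-4-loaded B1R-expressing CHO K1 cells before EC80 agonist challenge. Suppression of Ca2+ inflow, read as peak fluorescence, is expressed relative to maximum achievable inhibition; duplicate/triplicate, ≥2 independent experiments.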

[2] = target: T2, rat B1R (bradykinin receptor 1) (Rattus norvegicus, UniProt P97583); test: FLIPR Ca2+ assay (Fluo-4) on CHO K1 cells stably transfected with the B1R gene of the rat (rB1R cells): % inhibition at 10 μM / IC50, agonist Des-Arg9-bradykinin; type: cell-based; settings: for inhibition at 10 µM: CHO-K1, rat B1R
T2 construct: expressed in transfected cells; host or cells: CHO K1 cells
T2 sequence (P97583 1-337): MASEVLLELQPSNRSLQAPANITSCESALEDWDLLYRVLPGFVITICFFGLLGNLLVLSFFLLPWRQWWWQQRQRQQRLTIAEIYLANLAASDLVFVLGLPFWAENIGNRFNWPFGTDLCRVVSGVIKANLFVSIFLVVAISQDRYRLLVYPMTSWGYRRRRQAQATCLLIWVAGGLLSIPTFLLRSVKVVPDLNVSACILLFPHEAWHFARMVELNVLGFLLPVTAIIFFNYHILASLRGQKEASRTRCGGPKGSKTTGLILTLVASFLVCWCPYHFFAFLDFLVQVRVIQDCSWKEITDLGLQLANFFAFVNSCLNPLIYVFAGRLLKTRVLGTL
How it was run: as §1

Compound	inhibition at 10 µM [1] [%]	inhibition at 10 µM [2] [%]	also measured
O=C(NC1CCc2ccc(C(=O)N3CCC4(CC3)CCN(c3ccncc3)CC4)cc21)c1ccc(Cl)s1 (stereo not drawn) [Ind_CC-005, 5-chloro-N-[6-(9-pyridin-4-yl-3,9-diazaspiro[5.5]undecane-3-carbonyl)-2,3-dihydro-1H-inden-1-yl]-thiophene-2-carboxylic acid amide]	97	98	
O=C(N[C@H]1CCc2c(C(=O)N3CCC4(CC3)CCN(c3ccncc3)CC4)cccc21)c1ccccc1Cl [Example H-163, 2-Chloro-N-[(1S)-4-(9-pyridin-4-yl-3,9-diazaspiro[5.5]undecane-3-carbonyl)-2,3-dihydro-1H-inden-1-yl]-benzamide]	63	105	
CC(C(=O)N[C@@H]1CCc2ccc(C(=O)N3CCC4(CCN(c5ccncc5)CC4)C3)cc21)c1ccccc1Cl (stereo partly drawn) [Example H-145, 2-(2-Chlorophenyl)-N-[(1R)-6-(8-pyridin-4-yl-3,8-diazaspiro[4.5]decane-3-carbonyl)-2,3-dihydro-H-inden-1-yl]-propionamide]	100	101	
Cc1cccc(C)c1C(=O)NC1c2cc(C(=O)N3CCC4(CC3)CCN(c3ccncc3)CC4)ccc2CC1(C)C (stereo not drawn) [IND_CC-308, N-[2,2-Dimethyl-6-(9-pyridin-4-yl-3,9-diazaspiro[5.5]undecane-3-carbonyl)-1,3-dihydro-inden-1-yl]-2,6-dimethyl-benzamide]	97	106	
O=C(NC1CCc2ccc(C(=O)N3CCC4(CC3)CCN(c3ccncc3)C4)cc21)c1cc(Cl)ccc1Cl (stereo not drawn) [IND_CC-208, 2,5-Dichloro-N-[6-(2-pyridin-4-yl-2,8-diazaspiro[4.5]decane-8-carbonyl)-2,3-dihydro-1H-inden-1-yl]-benzamide]	99	100	
O=C(N[C@@H]1CCc2ccc(C(=O)N3CCC4(CCN(c5ccncc5)CC4)C3)cc21)c1ccccc1Cl [Example H-21, 2-chloro-N-[(1R)-6-(8-pyridin-4-yl-3,8-diazaspiro[4.5]decane-3-carbonyl)-2,3-dihydro-1H-inden-1-yl]-benzamide]	100	105	
O=C(NC1CCc2ccc(C(=O)N3CCC4(CCN(c5ccncc5)CC4)C3)cc21)c1cc(F)ccc1Cl (stereo not drawn) [IND_CC-253, 2-Chloro-5-fluoro-N-[6-(8-pyridin-4-yl-2,8-diazaspiro[4.5]decane-2-carbonyl)-2,3-dihydro-1H-inden-1-yl]-benzamide]	100	100	
CC1(C)Cc2ccc(C(=O)N3CCC4(CC3)CCN(c3ccncc3)CC4)cc2C1NC(=O)c1sccc1Cl (stereo not drawn) [Ind_CC-065, 3-chloro-N-[2,2-dimethyl-6-(9-pyridin-4-yl-3,9-diazaspiro[5.5]undecane-3-carbonyl)-1,3-dihydro-inden-1-yl]-thiophene-2-carboxylic acid amide]	94	98	
O=C(NC1CCc2ccc(C(=O)N3CCC4(CC3)CCN(c3ccncc3)CC4)cc21)c1cc(F)c(F)cc1Cl (stereo not drawn) [IND_CC-228, 2-Chloro-4,5-difluoro-N-[6-(9-pyridin-4-yl-3,9-diazaspiro[5.5]undecane-3-carbonyl)-2,3-dihydro-1H-inden-1-yl]-benzamide]	100	104	
O=C(NC1CCc2ccc(C(=O)N3CCC4(CC3)CCN(c3ccncc3)CC4)cc21)c1ccccc1Cl (stereo not drawn) [Ind_CC-095, 2-chloro-N-[6-(9-pyridin-4-yl-3,9-diazaspiro[5.5]undecane-3-carbonyl)-2,3-dihydro-1H-inden-1-yl]-benzamide]			% Inhibition (human B1R) at 10 μM ([1]; 10 µM): 99%; % Inhibition (rat B1R) at 10 μM ([2]; 10 µM): 99%
O=C(NC1CCc2ccc(C(=O)N3CCC4(CC3)CCN(c3ccc(F)cc3)CC4)cc21)c1ccccc1Cl (stereo not drawn) [Ind_CC-097, 2-chloro-N-[6-[9-(4-fluorophenyl)-3,9-diazaspiro[5.5]undecane-3-carbonyl]-2,3-dihydro-1H-inden-1-yl]-benzamide]	33	90	
O=C(NC1CCc2ccc(C(=O)N3CCC4(CC3)CCN(c3ccncc3)C4)cc21)c1c(F)cccc1Cl (stereo not drawn) [IND_CC-264, 2-Chloro-6-fluoro-N-[6-(2-pyridin-4-yl-2,8-diazaspiro[4.5]decane-8-carbonyl)-2,3-dihydro-1H-inden-1-yl]-benzamide]	97	106	
CC1(C)CC(NC(=O)C(c2ccccc2)c2ccccc2Cl)c2cc(C(=O)N3CCC4(CC3)CCN(c3ccncc3)CC4)ccc21 (stereo not drawn) [Ind_CC-056, 2-(2-chlorophenyl)-N-[3,3-dimethyl-6-(9-pyridin-4-yl-3,9-diazaspiro[5.5]-undecane-3-carbonyl)-1,2-dihydro-inden-1-yl]-2-phenyl-acetamide]	41	94	
O=C(Nc1ccc(Cl)c(Cl)c1)NC1CCc2ccc(C(=O)N3CCC4(CCN(c5ccncc5)CC4)C3)cc21 (stereo not drawn) [Ind_CC-085]			% Inhibition (human B1R) at 10 μM [1]: 91%; % Inhibition (rat B1R) at 10 μM [2]: 77%
O=C(NC1CCc2ccc(C(=O)N3CCC4(CCN(Cc5ccc[nH]5)CC4)CC3)cc21)c1ccccc1Cl (stereo not drawn) [IND_CC-507, 2-Chloro-N-[6-[9-(1H-pyrrol-2-yl-methyl)-3,9-diazaspiro[5.5]undecane-3-carbonyl]-2,3-dihydro-1H-inden-1-yl]-benzamide]	2	100	

Further lines, with some results ahead:

inhibition at 10 µM [1] [%]	inhibition at 10 µM [2] [%]	Compound	also measured
99	95	O=C(NC1CCc2ccc(C(=O)N3CCC4(CC3)CCN(c3ccncc3)CC4)cc21)c1cc(C(F)(F)F)ccc1Cl (stereo not drawn) [IND_CC-217, 2-Chloro-N-[6-(9-pyridin-4-yl-3,9-diazaspiro[5.5]undecane-3-carbonyl)-2,3-dihydro-1H-inden-1-yl]-5-(trifluoromethyl)-benzamide]	
27	106	Cc1cc(OC(F)(F)F)ccc1C(=O)N(C)C1CCc2ccc(C(=O)N3CCC4(CC3)CCN(c3ccncc3)CC4)cc21 (stereo not drawn) [IND_CC-299, N,2-Dimethyl-N-[6-(9-pyridin-4-yl-3,9-diazaspiro[5.5]undecane-3-carbonyl)-2,3-dihydro-1H-inden-1-yl]-4-(trifluoromethyloxy)-benzamide]	
100	99	CC1(C)CC(NC(=O)c2c(Cl)cccc2C(F)(F)F)c2cc(C(=O)N3CCC4(CC3)CCN(c3ccncc3)CC4)ccc21 (stereo not drawn) [IND_CC-243, 2-Chloro-N-[3,3-dimethyl-6-(3-pyridin-4-yl-3,9-diazaspiro[5.5]undecane-9-carbonyl)-1,2-dihydro-inden-1-yl]-6-(trifluoromethyl)-benzamide]	
71	103	CN(C(=O)c1cccc(C(F)(F)F)c1Cl)C1CCc2ccc(C(=O)N3CCC4(CC3)CCN(c3ccncc3)CC4)cc21 (stereo not drawn) [IND_CC-225, 2-Chloro-N-methyl-N-[6-(9-pyridin-4-yl-3,9-diazaspiro[5.5]undecane-3-carbonyl)-2,3-dihydro-1H-inden-1-yl]-3-(trifluoromethyl)-benzamide]	
49	104	Cc1ccc(C(=O)N(C)C2CCc3ccc(C(=O)N4CCC5(CC4)CCN(c4ccncc4)CC5)cc32)c(F)c1 (stereo not drawn) [IND_CC-304, 2-Fluoro-N,4-dimethyl-N-[6-(9-pyridin-4-yl-3,9-diazaspiro[5.5]undecane-3-carbonyl)-2,3-dihydro-1H-inden-1-yl]-benzamide]	
99	103	CN(C(=O)c1cc(F)ccc1Cl)C1CCc2ccc(C(=O)N3CCC4(CC3)CCN(c3ccncc3)CC4)cc21 (stereo not drawn) [IND_CC-203, 2-Chloro-5-fluoro-N-methyl-N-[6-(9-pyridin-4-yl-3,9-diazaspiro[5.5]undecane-3-carbonyl)-2,3-dihydro-1H-inden-1-yl]-benzamide]	
99	95	CN(C(=O)Cc1ccccc1Cl)C1CCc2ccc(C(=O)N3CCC4(CC3)CCN(c3ccncc3)CC4)cc21 (stereo not drawn) [Ind_CC-019, 2-(2-chlorophenyl)-N-methyl-N-[6-(9-pyridin-4-yl-3,9-diazaspiro[5.5]undecane-3-carbonyl)-2,3-dihydro-1H-inden-1-yl]-acetamide]	
100	103	CN(C(=O)c1cc(F)c(F)cc1Cl)C1CCc2ccc(C(=O)N3CCC4(CC3)CCN(c3ccncc3)CC4)cc21 (stereo not drawn) [IND_CC-224, 2-Chloro-4,5-difluoro-N-methyl-N-[6-(9-pyridin-4-yl-3,9-diazaspiro[5.5]undecane-3-carbonyl)-2,3-dihydro-1H-inden-1-yl]-benzamide]	
99	106	O=C(NC1CCc2ccc(C(=O)N3CCC4(CC3)CCN(c3ccncc3)CC4)cc21)c1ccccc1Cl (stereo not drawn) [IND_CC-273, 2-Chloro-N-[6-(9-pyridin-4-yl-3,9-diazaspiro[5.5]undecane-3-carbonyl)-2,3-dihydro-1H-inden-1-yl]-benzamide]	
